From patent US11109593B2, “Isoxazolin-5-one derivative and herbicide containing same as active ingredient” (HOKKO CHEMICAL INDUSTRY CO., LTD., priority 2017, dated 2021)

Key:
Type in all cases: in vivo
Amaranthus viridis = experiment: Test Example 3: herbicidal effect test by treatment of dry field farming soil (one day after seeding); conditions: 120 g/10a active ingredient, evaluated 14 days after treatment
Protocol: (§1) This test was conducted in a double system per one agent solution concentration area, and the herbicidal rates (%) were determined by the following equation (Math. 1) on 14 days after the treatment with the agents. Herbicidal Rate (%)={1-(Average Dry Weight (g) of Plant of Treated Area)/(Average Dry Weight (g) of Plant of Untreated Area)}×100 [Math. 1]
(§2) Herbicidal Effect Test by Treatment of Dry Field Farming Soil
(§3) Pots with a size of 36 cm^2 were filled with a dry field farming soil (alluvium). The soil of the top layer of 1 cm and seeds of weeds, namely southern crabgrass, Echinochloa crus-galli, Chenopodium album and Amaranthus viridis, 20 seeds each, were evenly mixed, and the top layer was gently pressed. Emulsions prepared using the compounds in Table 5 below according to Formulation Example 5 were diluted with water one day after seeding, and the water-diluted agent solutions were sprayed to the soil surfaces at a ratio of 100 liters per 10 ares. The converted amount of the applied active ingredient corresponded to 120 g per 10 ares. The herbicidal effects were evaluated by the same standard as that in Test Example 1 on 14 days after the treatment with the agents. […] The compound numbers in Table 5 are the same as those in Table 1 and Table 2 above.

southern crabgrass = experiment: as above; conditions: 120 g/10a active ingredient, evaluated 14 days after treatment
Protocol: as §1, §2, §3

Chenopodium album = experiment: as above; conditions: 120 g/10a active ingredient, evaluated 14 days after treatment
Protocol: as §1, §2, §3

Echinochloa crus-galli [1] = experiment: as above; conditions: 120 g/10a active ingredient, evaluated 14 days after treatment
Protocol: as §1, §2, §3

Scirpus juncoides [2] = experiment: Test Example 2: herbicidal effect test by treatment during growing period in paddy rice cultivation (seven days after seeding); conditions: for Herbicidal rate (%) Scirpus juncoides: 120 g/10a active ingredient, assessed 14 days after treatment, dry weight vs untreated area
Method in brief: (§4)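 Seeds sown 0–1 cm deep in puddled, fertilised paddy soil with about 3 cm standing water in a glass greenhouse. Diluted emulsion dropped into the water seven days after seeding at 120 g active ingredient per 10 ares. Herbicidal rate (%) from mean dry weight vs untreated, duplicate, 14 days after treatment.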

[3] = test system: broad leaf weeds (Lindernia pyxidaria and Monochoria vaginalis); experiment: as above; conditions: for Herbicidal rate (%) Lindernia pyxidaria / Herbicidal rate (%) Monochoria vaginalis: 120 g/10a active ingredient, assessed 14 days after treatment, dry weight vs untreated area
Method in brief: as §4

Echinochloa crus-galli [4] = experiment: as above; conditions: for Herbicidal rate (%) Echinochloa crus-galli: 120 g/10a active ingredient, assessed 14 days after treatment, dry weight vs untreated area
Method in brief: as §4

Scirpus juncoides [5] = experiment: Test Example 1: herbicidal effect test by treatment of rice paddy soil (immediately after seeding)
Method in brief: (§5)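 Flooded paddy pot test in a glass greenhouse: emulsion diluted in water, dropped at 120 g a.i. per 10 ares just after sowing, water depth kept about 3 cm. Dry-weight reduction relative to untreated plants is scored at 14 days.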

[6] = test system: broad leaf weeds (Lindernia pyxidaria and Monochoria vaginalis); experiment: as above
Method in brief: as §5

Echinochloa crus-galli [7] = experiment: as above
Method in brief: as §5

[8] = 120 g/10a active ingredient, dry weight vs untreated area, 14 days after treatment
[9] = Lindernia pyxidaria, 120 g/10a active ingredient, dry weight vs untreated area, 14 days after treatment
[10] = Monochoria vaginalis, 120 g/10a active ingredient, dry weight vs untreated area, 14 days after treatment
[11] = 120 g/10a, rated 14 days after treatment, paddy soil pots
[12] = 120 g/10a active ingredient, 14 days after treatment, dry weight vs untreated area
[13] = Lindernia pyxidaria, 120 g/10a active ingredient, 14 days after treatment, dry weight vs untreated area
[14] = Monochoria vaginalis, 120 g/10a active ingredient, 14 days after treatment, dry weight vs untreated area

| SMILES | herbicidal rate, Amaranthus viridis (Amaranthus viridis) [%] | herbicidal rate, southern crabgrass (southern crabgrass) [%] | herbicidal rate, Chenopodium album (Chenopodium album) [%] | herbicidal rate, Echinochloa crus-galli (Echinochloa crus-galli [1]) [%] | Herbicidal rate (%) Scirpus juncoides (Scirpus juncoides [2]) [%] | Herbicidal rate (%) Lindernia pyxidaria ([3]; Lindernia pyxidaria) [%] | Herbicidal rate (%) Monochoria vaginalis ([3]; Monochoria vaginalis) [%] | Herbicidal rate (%) Echinochloa crus-galli (Echinochloa crus-galli [4]) [%] | Herbicidal rate (%) Scirpus juncoides (Scirpus juncoides [5]; [8]) [%] | Herbicidal rate (%) Lindernia pyxidaria [6, 9] [%] | Herbicidal rate (%) Monochoria vaginalis [6, 10] [%] | Herbicidal rate (%) Echinochloa crus-galli (Echinochloa crus-galli [7]; [8]) [%] | herbicidal rate, Scirpus juncoides (Scirpus juncoides [2]; [11]) [%] | herbicidal rate, Lindernia pyxidaria ([3]; Lindernia pyxidaria, 120 g/10a, rated 14 days after treatment, paddy soil pots) [%] | herbicidal rate, Monochoria vaginalis ([3]; Monochoria vaginalis, 120 g/10a, rated 14 days after treatment, paddy soil pots) [%] | herbicidal rate, Echinochloa crus-galli (Echinochloa crus-galli [4]; [11]) [%] | Herbicidal rate (%) Scirpus juncoides (Scirpus juncoides [5]; [12]) [%] | Herbicidal rate (%) Lindernia pyxidaria [6, 13] [%] | Herbicidal rate (%) Monochoria vaginalis [6, 14] [%] | Herbicidal rate (%) Echinochloa crus-galli (Echinochloa crus-galli [7]; [12]) [%] |
| --- | --- | --- | --- | --- | --- | --- | --- | --- | --- | --- | --- | --- | --- | --- | --- | --- | --- | --- | --- | --- |
| Cc1c(Cc2ccccc2NS(=O)(=O)C(F)(F)F)c(=O)on1C(C)c1ccccc1 (stereo not drawn) [Compound 1-203] | 40 | 90 | 40 | 60 | 90 | 90 | 90 | 90 | 90 | 100 | 100 | 90 | – | – | – | – | – | – | – | – |
| Cc1c(Cc2ccccc2N(S(=O)(=O)C(F)(F)F)S(=O)(=O)C(F)(F)F)c(=O)on1S(=O)(=O)C(C)C [Compound 1-1064] | 80 | 60 | 80 | 100 | – | – | – | – | – | – | – | – | 90 | 50 | 80 | 70 | 90 | 90 | 90 | 90 |
| Cc1c(Cc2ccccc2N(C(=O)c2ccccc2)S(=O)(=O)C(F)(F)F)c(=O)on1C(C)C [Compound 1-472] | 0 | 70 | 50 | 90 | 90 | 80 | 90 | 90 | 90 | 90 | 60 | 90 | – | – | – | – | – | – | – | – |
| CCn1oc(=O)c(Cc2ccccc2NS(=O)(=O)C(F)(F)F)c1C [Compound 1-98] | 0 | 90 | 0 | 90 | 90 | 60 | 60 | 80 | 90 | 100 | 100 | 100 | – | – | – | – | – | – | – | – |
| CCCOC(=O)N(c1ccccc1Cc1c(C)n(C(C)(C)C)oc1=O)S(=O)(=O)C(F)(F)F [Compound 1-631] | 90 | 90 | 90 | 90 | 90 | 90 | 90 | 90 | 90 | 90 | 90 | 90 | – | – | – | – | – | – | – | – |
| Cc1c(Cc2ccccc2N(C(=O)OC(C)C)S(=O)(=O)C(F)(F)F)c(=O)on1C(C)(C)C [Compound 1-641] | 90 | 90 | 90 | 90 | 90 | 90 | 90 | 90 | 90 | 90 | 90 | 90 | – | – | – | – | – | – | – | – |
| Cc1c(Cc2ccccc2N(S(=O)(=O)C(F)(F)F)S(=O)(=O)C(F)(F)F)c(=O)on1C1CCc2ccccc21 (stereo not drawn) [Compound 1-1049] | 50 | 80 | 50 | 90 | 70 | 60 | 70 | 80 | – | – | – | – | – | – | – | – | 90 | 90 | 80 | 90 |
| Cc1c(Cc2ccccc2NS(=O)(=O)C(F)(F)F)c(=O)on1C1CCCc2ccccc21 (stereo not drawn) [Compound 1-224] | 100 | 100 | 90 | 100 | 80 | 60 | 80 | 90 | 90 | 100 | 100 | 100 | – | – | – | – | – | – | – | – |
| Cc1c(Cc2ccccc2NS(=O)(=O)C(F)(F)F)c(=O)on1S(=O)(=O)C(C)C [Compound 1-251] | 80 | 80 | 80 | 100 | 90 | 50 | 80 | 50 | 80 | 90 | 100 | 100 | – | – | – | – | – | – | – | – |
| CCn1oc(=O)c(Cc2ccccc2N(S(=O)(=O)C(F)(F)F)S(=O)(=O)C(F)(F)F)c1C [Compound 1-960] | 0 | 80 | 0 | 100 | 70 | 70 | 70 | 70 | 80 | 70 | 70 | 80 | – | – | – | – | – | – | – | – |
| CCC(C)Cn1oc(=O)c(Cc2ccccc2N(S(=O)(=O)C(F)(F)F)S(=O)(=O)C(F)(F)F)c1C (stereo not drawn) [Compound 1-972] | 100 | 90 | 100 | 90 | 90 | 80 | 100 | 100 | 100 | 100 | 100 | 100 | – | – | – | – | – | – | – | – |
| Cc1c(Cc2ccccc2NS(=O)(=O)C(F)(F)F)c(=O)on1CCc1ccccc1 [Compound 1-216] | 40 | 70 | 0 | 60 | 90 | 100 | 100 | 90 | 100 | 100 | 100 | 90 | – | – | – | – | – | – | – | – |
